Patent US20210347823A1, “METHODS OF PHYSICOCHEMICAL-GUIDED PEPTIDE DESIGN AND NOVEL PEPTIDES DERIVED THEREFROM” (Massachusetts Institute of Technology, priority 2018, published 2021)

Experiments:
human red blood cells = experiment: Hemolytic activity assay; format: cell-based; settings: for HC50: concentration needed for 50% hemolysis, human RBC in PBS, room temperature, 1 h, 0.1-100 μmol L^−1; for hemolytic activity: range of concentrations evaluated 0-100 μmol L^−1
Experimental: FIGS. 6A-6B. Hemolysis and resistance to protease-mediated degradation of engineered peptides. FIG. 6A. Schematic of experimental design and hemolytic assay results of Pol-CP—NH2 and derivatives, where hemolytic activity was evaluated by incubating the peptides (0.1-100 μmol L^−1) with human red blood cells in PBS at room temperature for 1 h. Experiments were performed in triplicate, (*p<0.05). FIG. 6B. Resistance to degradation of Pol-CP—NH2 and analogs exposed to fetal bovine serum (FBS) proteases for 6 h. Experiments were done in triplicate.
Hemolytic Activity Assays. Human erythrocytes were collected and washed three times by centrifugation at 300×g with PBS (pH 7.4). After the last centrifugation, the cells were resuspended in PBS pH 7.4. Aliquots at a concentration of 0.1 to 100 ? mol L^−1 of the peptides were added to the 96-well microplate, where in each well containing 50 ? L of a suspension of erythrocytes to 0.4% in a phosphate saline buffer (10 mmol L^−1 Na2HPO4, 1.8 mmol L^−1 […], pH 7.4, 137 mmol L^−1 NaCl and 2.7 mmol L^−1KCl). After that, the samples were incubated at room temperature for 1 h. Hemolysis was determined by reading absorbance at 405 nm of each well in a bed of plates. 1% SDS in PBS solution was used as positive control (Shalel S. et al., J. Colloid Interface Sci. 252, 66-76 (2002); Love L. J. Cell. Comp. Physiol. 36, 133-148 (1950)) and as negative control was used PBS only. MHC was defined as the maximal non-hemolytic concentration.

[1] = system: Gram-positive bacteria, Gram-negative bacteria and fungi (twelve different strains); experiment: Liquid growth inhibition MIC against larger panel of microorganisms (MIC average); format: cell-based; settings: for MIC Average: average of MIC over twelve different strains; for antimicrobial activity: second-generation analogs, larger panel
Source text: FIGS. 5A-5D. Antimicrobial activity of second-generation library of synthetic peptides. FIG. 5A. In vitro activity of Pol-CP—NH2 and second generation of analogs against Gram-positive bacteria (Micrococcus luteus, Staphylococcus aureus, Staphylococcus epidermidis and Bacillus megaterium), Funghi (Candida albicans and Candida tropicalis) and Gram-negative bacteria (Escherichia coli, Enterobacter cloacae and Serratia marcescens). Experiments performed in triplicates. FIG. 5B. MIC (μmol L^−1) average vs fH in TFE/Water solution. FIG. 5C. Graph correlating MIC (μmol L^−1) averages vs H and (FIG. 5D) MIC (μmol L^−1) averages vs μH, where dots above the dashed line represent peptides with lower activity and dots below the dashed line show peptides with higher activity compared to the wild-type, in which one can observe ranges of optimal activity in determined intervals of H and μH values.
Microorganisms. The following strains were used: Micrococcus luteus A270, Staphylococcus aureus ATCC29213, Staphylococcus epidermidis ATCC12228, Bacillus megaterium ATCC10778 Escherichia coli SBS 363, Enterobacter cloacae ®-12, Serratia marcescens ATCC4112, Candida albicans MDM8, Candida tropicalis IOC4560 from Instituto Butanta, Sao Paulo, Brazil, and Escherichia coli BL21, Pseudomonas aeruginosa PA14, Pseudomonas aeruginosa PA01 and Staphylococcus aureus ATCC12600 from Synthetic Biology Group at MIT.
MIC assays. The MIC assays were performed using the broth microdilution method (Wiegand I. et al., Protoc. 3, 163-175 (2008); de la Fuente-Núñez C. et al., Antimicrob. Agents Chemother. 56, 2696-2704 (2012)) in sterile 96-well polypropylene microtiter plates. Peptides were added to the plate as solutions in BM2 minimal medium in concentrations ranging from 0 to 128 ? mol L^−1, and the bacteria were inoculated at a final concentration of 5×10^5 CFU mL^−1 per well. The plates were incubated at 37° C. for 24 h. The MIC was defined as the lowest concentration of compound at which no growth was observed. Additional liquid growth inhibition assays were done in Peptone Broth (PB, 0.5% NaCl, 1% Peptone at pH 7.4) and Potato Dextrose Broth (Invitrogen) were used for antibacterial and antifungal assays, respectively. Briefly, bacteria or fungi were incubated with serial dilutions of polybia-CP and analogs (50-0.09 μmol L^−1) in a 96-well microplate at 37° C. The microbial growth was assessed by measurements in a model 354 Multiskan Ascent microplate reader at A595nm, after 18 and 24 h (bacteria and fungi, respectively) incubation on a model 347CD FANEM incubator. MIC was defined as the minimal inhibitory concentration that prevents 100% of the bacterial growth. All assays were done in triplicate.

Row | Substance | HC50 (human red blood cells) | hemolytic activity (concentration at which hemolytic) (human red blood cells; human red blood cells, range evaluated 0-100 μmol L^−1) | hemolytic activity (human red blood cells) | MIC Average [1] | antimicrobial activity ([1]; listed as [Lys]'-Pol-CP—NH2) | antimicrobial activity ([1]; listed as [Lys]^7-Pol-CP—NH2)
1 | H-ILGTILKLLKSL-NH2 [Peptide 16, ILGTILKLLKSL-NH2] | 12.5 µmol/L | 12.5 µmol/L | hemolytic | 1.4 µM | impacted favorably both structure and antimicrobial activity | most active
2 | H-ILGTILGLLKSL-NH2 [WT, ILGTILGLLKSL-NH2, reference compound] | 50.0 µmol/L | – | hemolytic | 16.2 µM | – | –
